Data reported in patent US20200253922A1, “METHODS FOR NON-[…] ADMINISTRATION OF CANNABINOIDS USING SOFT MIST […]” (Molecular Infusions, LLC, priority 2019, published 2020).
Read-outs that look alike come from different tables or passages of the source.

Columns and labels:
[1] = Solubility of Δ9-THC and CBD in a solution of ethanol and saline at room temperature
Method: FIG. 5 is a photograph of 2% w/w Δ9-THC and 2% w/w CBD in solutions of 10%, 20%, 30%, 40% and 50% (w/w) saline in ethanol. Δ9-THC and CBD were soluble in solutions of up to 30% and 40% (w/w) saline, respectively.
As shown in FIG. 5 the solubility of Δ9-THC and CBD in a solution of ethanol and saline was investigated. […] A 2% w/w solution of CBD was prepared at room temperature in solutions of 10%, 20%, 30%, 40%, or 50% (w/w) saline in ethanol. 2% w/w CBD was soluble at room temperature in ethanol solutions of up to 40% saline. In a separate experiment, the absolute solubility of Δ9-THC in ethanol solutions containing 30%w/w saline was determined to be ˜8%w/w (data not shown).

[2] = Terpene solubility assessment in base formulation of 10% Saline, 20% Water, 70% Ethanol; format: physicochemical; settings: for Visual Observation: mixed overnight at room temperature
Method: The base formulation was prepared in bulk and 15 g aliquots were transferred to 22 ml scintillation vials. Pure, botanically derived terpenes were purchased from commercial sources.

[3] = acidic form; cited from earlier work
patients = settings: aerosol formulation; cited from earlier work
Volunteers = assay: User feedback on tolerability of Δ9-THC distillate in ethanol delivered via […]; format: in vivo, human; settings: in 200 proof ethanol, RESPIMAT
Description: Volunteers reported that 200 proof ethanol (placebo) delivered using the […]® device as non-irritating. It was observed that the cannabinoid, Δ9-THC in the ethanol solution, induced irritation that was dose dependent as shown in Table 1 below:
The irritation was caused by cannabinoid deposition at mucosal membranes in the throat and upper airways. The lung deposition profile is affected by multiple factor including FPF as well as user inhalation technique. For example, it has been shown that the timing of inhalation and actuation as well as the posture of the user's head can have an impact on lung deposition. It is also important to note that in vitro impactor studies commonly underestimate dose deposition in the throat and overestimate the dose deposited in the lungs (Wei et al. (2018), Journal of Aerosol Medicine and Pulmonary Drug Delivery 31(0): 1-14).

[4] = Fine particle fraction by Fast Screening Impactor, Respimat device, 28.3 L/min; format: physicochemical
Description: An abbreviated impactor set-up, Copley Scientific's ‘Fast Screening Impactor’ (FSI), was used to determine the FPF within liquid aerosols (Mitchell et al. AAPS PharmSciTech. 2009;10(1):252-7). The FSI consisted of the universal induction port (UIP), course fraction collector (pre-separator and insert with a 5 μm diameter cut-off @ 28.3 L/min), and fine particle fraction collector consisting of a holder and glass fiber filter. The system was assembled along with a Copley LC5 pump. The flow rate was set by attaching a flow meter to the inlet of the induction port and adjusting the flow control valve on the LC5 vacuum pump until the flow rate through the system was 28.3 L/min +/−5%. Measurements were performed under ambient laboratory conditions (˜60% RH, 72° F.). The Respimat device was primed and attached to the UIP using a mouthpiece adapter. With the vacuum pump running, the device was actuated followed by a 30 second hold before turning off the vacuum pump. The Respimat device was re-primed and another dose was collected in the FSI. To determine the amount of cannabinoids deposited in each stage, the FSI was dismantled and each stage was extracted with 10 ml of methanol. Samples were diluted and HPLC performed to quantify the mass of cannabinoids deposited in the USP throat, coarse fraction collector, and fine particle fraction collector.

asthmatic patients = settings: metered dose inhaler, cited from earlier work
subjects = settings: 5 mg dose via pMDI; cited from earlier work
healthy volunteers = settings: doses greater than 2 mg, PARI nebulizer, eight healthy volunteers, all patients; cited from earlier work

C=C(C)[C@@H]1CCC(C)=C[C@H]1c1c(O)cc(CCCCC)cc1O [CBD, Cannabidiol]
observation of 2% w/w solution ([1]; 50% (w/w) saline solution): precipitate

CC12CCC(CC1)C(C)(C)O2 [Eucalyptol]
Visual Observation ([2]; Target Concentration 0.06% w/w): Clear, colorless | Visual Observation ([2]; Target Concentration 0.24% w/w): Hazy, not fully | Visual Observation ([2]; Target Concentration […] w/w): Clear, colorless

C=CC(C)(O)CCC=C(C)C (stereo not shown) [Linalool]
Visual Observation ([2]; Target Concentration 0.06% w/w): Clear, colorless | Visual Observation ([2]; Target Concentration 0.24% w/w): Hazy, not fully | Visual Observation ([2]; Target Concentration […] w/w): Clear, colorless

CC1=CCC(=C(C)C)CC1 [Terpinolene]
Visual Observation ([2]; Target Concentration 0.06% w/w): Clear, colorless | Visual Observation ([2]; Target Concentration 0.24% w/w): Hazy, not fully | Visual Observation ([2]; Target Concentration […] w/w): Clear, colorless

O=C1NS(=O)(=O)c2ccccc21 [saccharin]
pKa [3]: ~1.9

CCCCCc1cc(O)c2c(c1)OC(C)(C)C1CC=C(C)CC21 (stereo not shown) [Δ8-THC, delta-8-tetrahydrocannabinol]
cough reaction (patients): causing patients to cough

CCCCCc1cc(O)c2c(c1)OC(C)(C)[C@@H]1CCC(C)=C[C@@H]21 [Δ9-THC, Delta-9-tetrahydrocannabinol]
User experience (Volunteers; dose 0.35 mg): Most tolerable: Cough may occur, mild irritation of | User experience (Volunteers; dose 0.6 mg): Harsh: Mild cough with mild throat/upper airway | User experience (Volunteers; dose 1 mg): Harsh: Coughing with throat/upper airway irritation | User experience (Volunteers; dose 2 mg): Extremely harsh: Coughing with throat/upper airway | % dose in FPF ([4]; dose 0.35 mg): 76% | % dose in FPF ([4]; dose 0.6 mg): 76% | % dose in FPF ([4]; dose 1 mg): 77% | % dose in FPF ([4]; dose 2 mg): 78% | saline content of ethanol solution up to which 2% w/w is soluble ([1]; 2% w/w, room temperature, 10-50% (w/w) saline in ethanol tested): up to 30 % (w/w) saline | observation of 2% w/w solution ([1]; 40% and 50% (w/w) saline solutions): form a separate liquid phase (oiling out) | absolute solubility ([1]; ethanol solutions containing 30%w/w saline, data not shown): ~8 %w/w | tolerability of aerosol delivery to the lungs (asthmatic patients; 0.2 mg): tolerable | tolerability of aerosol delivery to the lungs (asthmatic patients; doses higher than 0.2 mg): irritating and induced coughing | subjects with side effects including cough and/or chest discomfort (subjects): 3 out of 11 | irritation reported after inhalation, compared to a placebo formulation (healthy volunteers): significant irritation of the throat and upper respiratory tract

C=C1CC/C=C(\C)CC[C@@H]2[C@@H]1CC2(C)C [β-caryophyllene]
Visual Observation ([2]; Target Concentration 0.06% w/w): Clear, colorless | Visual Observation ([2]; Target Concentration 0.24% w/w): Hazy, not fully | Visual Observation ([2]; Target Concentration […] w/w): Clear, colorless

C=CC(=C)CCC=C(C)C [β-myrcene]
solubility at the lowest percentage tested ([2]; 0.06% w/w): not soluble | Visual Observation ([2]; Target Concentration 0.06% w/w): Hazy, not fully | Visual Observation ([2]; Target Concentration 0.24% w/w): Hazy, not fully | Visual Observation ([2]; Target Concentration […] w/w): Hazy, not fully
